For this test, the target named is NDM-1 (New Delhi metallo-β-Lactamase) (Klebsiella pneumoniae, UniProt C7C422). It is filed as biochemical.

One compound from publication PMC5451161 (Tetrahedron, asymmetry, 2016) can be followed below.

Molecules are shown by their SMILES.

NDM-1 (New Delhi metallo-β-Lactamase), sequence (C7C422 29-270 limits assumed): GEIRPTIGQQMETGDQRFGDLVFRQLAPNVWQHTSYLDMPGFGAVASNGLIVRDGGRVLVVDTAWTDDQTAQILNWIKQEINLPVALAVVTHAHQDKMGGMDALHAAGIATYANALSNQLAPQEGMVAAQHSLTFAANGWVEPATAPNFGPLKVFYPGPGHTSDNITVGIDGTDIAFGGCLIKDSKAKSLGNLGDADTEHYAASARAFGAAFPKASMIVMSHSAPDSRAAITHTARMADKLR

Consider `COC(=O)[C@@H]1COC2CSC(CS)N21` (stereo partly shown) [4f], for which the inhibition constant (Ki) (usually a dissociation constant, usually derived from enzyme kinetics or from competition with a known ligand) was 1600 ± 600 nM.
